Here are results for 14 compounds from patent US20260166016A1, “GPR139 RECEPTOR AGONIST, PREPARATION METHOD THEREFOR, AND APPLICATION THEREOF” (NEUBO APPTECH CO., LTD., priority 2022, published 2026).

The target in this test is T1, GPR139 (Homo sapiens, UniProt Q6DWJ6).
T1 construct: expressed in transfected cells; host or cells: HEK293
T1 sequence (Q6DWJ6 1-353): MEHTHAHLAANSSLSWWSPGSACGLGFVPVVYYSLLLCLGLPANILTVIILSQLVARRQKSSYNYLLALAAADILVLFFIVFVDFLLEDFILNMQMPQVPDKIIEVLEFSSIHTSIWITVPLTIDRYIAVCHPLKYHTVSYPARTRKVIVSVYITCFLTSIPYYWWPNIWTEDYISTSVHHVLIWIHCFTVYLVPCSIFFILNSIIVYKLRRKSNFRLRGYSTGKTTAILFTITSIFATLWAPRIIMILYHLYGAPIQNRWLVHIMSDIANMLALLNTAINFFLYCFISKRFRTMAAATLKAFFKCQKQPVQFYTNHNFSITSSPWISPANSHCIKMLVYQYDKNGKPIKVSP
The experiment in a line: GPR139 FLIPR cell calcium signal detection in GPR139-transfected HEK293 cells. The format is cell-based. The conditions noted are these: HEK293 cells transfected with GPR139, read-out: EC50 values of compounds for GPR139. As for the experimental part:
HEK293 cells were grown in a 10 cm culture dish containing DMEM complete medium (containing glutamine, sodium pyruvate, penicillin/streptomycin, 10% fetal bovine serum) and incubated at 37° C. in a 5% CO2 incubator until 90% confluency. Then subculture twice a week at a ratio of 1:5. During cell passaging, the culture medium was first completely removed, washed once with 4 mL of DPBS, and then 3 mL of trypsin digestion solution was added and mixed well. When cell dissociation was observed, the trypsin solution was aspirated and 5 mL of complete DMEM medium was added. The cells were dispersed by pipetting, and 1 mL of cell suspension was added to each of five new 10 cm culture dishes. Then, 7 mL of complete DMEM medium was supplemented to each dish. After mixing, the cells were cultured at 37° C. in a 5% CO2 incubator.
On the transfection day, cells were digested and seeded into one 10 cm culture dish at appropriate density. 6 mL of DMEM/F12 medium (containing glutamine, sodium pyruvate, HEPES, and fetal bovine serum) was added, and the cells were cultured for 5 hours at 37° C. in 5% CO2. A 50 mL sterile centrifuge tube (Tube A) was taken, and 1 mL of serum-free DMEM/F12 medium (containing glutamine, sodium pyruvate, and HEPES) was added, followed by 10 μg of GPR139 DNA. The mixture was mixed well. Another 50 mL sterile centrifuge tube (Tube B) was taken, and 1 mL of serum-free DMEM medium (containing glutamine, sodium pyruvate, and HEPES) was added, followed by 60 μL of Fugene HD transfection reagent. The mixture was mixed well. 1 mL of Fugene HD transfection reagent from Tube B was transferred to Tube A, mixed well, and incubated at room temperature for 20 minutes. 2 mL of DMEM/F12 medium (containing glutamine, sodium pyruvate, HEPES, and fetal bovine serum) was added to Tube A. After mixing, 4 mL of mixture from Tube A was transferred to the prepared 10 cm dish (total volume 10 mL). The cells were cultured for 20-24 hours at 37° C. in 5% CO2.
The next day, the transfected cells were digested with trypsin digestion solution, and appropriate DMEM/F12 medium (containing glutamine, sodium pyruvate, HEPES, penicillin/streptomycin, fetal bovine serum) was added. The cells were seeded into Matrigel coated 384-well plates with a cell density of 6.67×10^6 cells/mL, 30 μL/well. The 384-well plates were cultured at 37° C. in 5% CO2.
On the third day, 10 μL/well of FLIPR dye (diluted in HEPES solution containing Pluronic and Probenecid) was added to the 384-well cell plate. And the plate was incubated for 40 minutes at 37° C. in 5% CO2. Diluted compounds were added to the cell plate and calcium signals were measured using a FLIPR plate reader.
Data were analyzed using XL-fit software to obtain EC50 values for each compound.
In the case of `C[C@H](NC(=O)CNC(=O)c1cc(F)cc(F)c1)c1c(F)cccc1F` [NRB202], the EC50 lay within 0.1 to 100 nM.
As to `C[C@H](NC(=O)CNC(=O)c1cccc(F)c1)c1c(F)cccc1F` [NRB154], the EC50 was in the range of 100 to 1000 nM.
With `C[C@H](NC(=O)CNC(=O)c1cccc(Cl)c1)c1cc(F)ccc1F` [NRB178] the figure was 0.1 to 100 nM; with `C[C@H](NC(=O)CNC(=O)c1cc(Cl)cc(C(F)(F)F)n1)c1c(F)cc(F)cc1F` [NRB227], 100 to 1000 nM.
With `C[C@H](NC(=O)CNC(=O)c1cc(Cl)cc(C(F)(F)F)n1)c1c(F)cccc1F` [NRB222] the figure was 100 to 1000 nM; with `C[C@H](NC(=O)CNC(=O)c1cccc(Cl)c1)c1cccc(F)c1F` [NRB180], 0.1 to 100 nM; with `COc1cc(Cl)cc(C(=O)NCC(=O)N[C@@H](C)c2c(F)cccc2F)n1` [NRB221], 100 to 1000 nM.
On to `C[C@H](NC(=O)CNC(=O)c1cc(Cl)cc(Cl)c1)c1c(F)cccc1F` [NRB216], for which the EC50 was in the range of 0.1 to 100 nM.
With `COc1cc(F)nc(C(=O)NCC(=O)N[C@@H](C)c2c(F)cccc2F)c1` [NRB215], the EC50 was in the range of 0.1 to 100 nM.
The value for `C[C@H](NC(=O)CNC(=O)c1cc(Cl)cc(F)n1)c1c(F)cc(F)cc1F` [NRB225] was 0.1 to 100 nM; that for `COc1cc(F)nc(C(=O)NCC(=O)N[C@@H](C)c2ccccc2F)c1` [NRB211] was 0.1 to 100 nM.
Consider `C[C@H](NC(=O)CNC(=O)c1cc(F)ccn1)c1ccccc1F` [NRB156], for which the EC50 was 100 to 1000 nM.
Take `C[C@H](NC(=O)CNC(=O)c1cccc(F)c1)c1ccccc1F` [NRB153]: the concentration for a half-maximal effect (EC50) fell in the range of 0.1 to 100 nM.
As to `C[C@H](NC(=O)CNC(=O)c1cc(F)cc(C(F)(F)F)n1)c1c(F)cccc1F` [NRB214], the EC50 is 100 to 1000 nM.
